Test results reported in ChEMBL document CHEMBL1201862, “PubChem BioAssay data set” (2004).
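A five-concentration, 48-hour dose response in 96-well plates underlies each endpoint, interpolated linearly between surrounding concentrations. Abbreviation: GI50, concentration required for 50% inhibition of growth.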 Activity calls are given as the source filed them. Rule as the data show it: active = GI50 up to about 1.1 µM and inactive = higher.

Columns and labels:
Assay in all cases: NCI anticancer screen, dose series, 48 h
DMS-273 = test system: DMS-273
KM12 = test system: KM12
SF-295 = test system: SF-295
Malme-3M = test system: Malme-3M
DMS-114 = test system: DMS-114
A549 = test system: A549
OVCAR-3 = test system: OVCAR-3
HCT-116 = test system: HCT-116
A498 = test system: A498
NCI-H460 = test system: NCI-H460
ACHN = test system: ACHN
UACC-257 = test system: UACC-257
NCI-H23 = test system: NCI-H23
SN12C = test system: SN12C
SF-268 = test system: SF-268
HCT-15 = test system: HCT-15
SNB-75 = test system: SNB-75
MOLT-4 = test system: MOLT-4
M14 = test system: M14
SK-MEL-28 = test system: SK-MEL-28
HOP-18 = test system: HOP-18
K562 = test system: K562
HT-29 = test system: HT-29
TK-10 = test system: TK-10
OVCAR-4 = test system: OVCAR-4
CCRF-CEM = test system: CCRF-CEM
SK-MEL-5 = test system: SK-MEL-5
IGROV-1 = test system: IGROV-1
M19-MEL = test system: M19-MEL
SW-620 = test system: SW-620
HL-60 = test system: HL-60
SK-MEL-2 = test system: SK-MEL-2
LOX IMVI = test system: LOX IMVI
SF-539 = test system: SF-539
RXF 393 = test system: RXF 393
OVCAR-8 = test system: OVCAR-8
NCI-H226 = test system: NCI-H226
LXFL 529 = test system: LXFL 529
SNB-78 = test system: SNB-78
UACC-62 = test system: UACC-62
COLO 205 = test system: COLO 205
HOP-92 = test system: HOP-92
SK-OV-3 = test system: SK-OV-3
SNB-19 = test system: SNB-19
UO-31 = test system: UO-31
EKVX = test system: EKVX
786-0 = test system: 786-0
KM-20L2 = test system: KM-20L2
HCC 2998 = test system: HCC 2998
U-251 = test system: U-251
OVCAR-5 = test system: OVCAR-5
DLD-1 = test system: DLD-1
CAKI-1 = test system: CAKI-1
HOP-62 = test system: HOP-62
RPMI-8226 = test system: RPMI-8226
SR = test system: SR
NCI-H522 = test system: NCI-H522

CC1(C)OC(COP2OCCO2)[C@H](COP2OCCO2)O1 (stereo partly specified)
GI50 (DMS-273): > 100 µM (inactive)
GI50 (KM12): > 100 µM (inactive)
GI50 (SF-295): > 100 µM (inactive)
GI50 (Malme-3M): > 100 µM (inactive)
GI50 (DMS-114): > 100 µM (inactive)
GI50 (A549): > 100 µM (inactive)
GI50 (OVCAR-3): > 100 µM (inactive)
GI50 (HCT-116): > 100 µM (inactive)
GI50 (A498): > 100 µM (inactive)
GI50 (NCI-H460): > 100 µM (inactive)
GI50 (ACHN): > 100 µM (inactive)
GI50 (UACC-257): > 100 µM (inactive)
GI50 (NCI-H23): > 100 µM (inactive)
GI50 (SN12C): > 100 µM (inactive)
GI50 (SF-268): > 100 µM (inactive)
GI50 (HCT-15): > 100 µM
GI50 (SNB-75): > 100 µM (inactive)
GI50 (MOLT-4): > 100 µM (inactive)
GI50 (M14): > 100 µM (inactive)
GI50 (SK-MEL-28): > 100 µM (inactive)
GI50 (HOP-18): > 100 µM (inactive)
GI50 (K562): > 100 µM (inactive)
GI50 (HT-29): > 100 µM (inactive)
GI50 (TK-10): > 100 µM (inactive)
GI50 (OVCAR-4): > 100 µM (inactive)
GI50 (CCRF-CEM): > 100 µM (inactive)
GI50 (SK-MEL-5): > 100 µM (inactive)
GI50 (IGROV-1): 31 µM (inactive)
GI50 (M19-MEL): > 100 µM (inactive)
GI50 (SW-620): > 100 µM (inactive)
GI50 (HL-60): > 100 µM (inactive)
GI50 (SK-MEL-2): > 100 µM (inactive)
GI50 (LOX IMVI): > 100 µM (inactive)
GI50 (SF-539): > 100 µM (inactive)
GI50 (RXF 393): > 100 µM (inactive)
GI50 (OVCAR-8): > 100 µM (inactive)
GI50 (NCI-H226): > 100 µM (inactive)
GI50 (LXFL 529): > 100 µM (inactive)
GI50 (SNB-78): > 100 µM (inactive)
GI50 (UACC-62): > 100 µM (inactive)

Cc1ccc(S(=O)(=O)NNC(=O)c2sc(-c3nc(C)c(C(=O)NNS(=O)(=O)c4ccc(C)cc4)s3)nc2C)cc1
GI50 (KM12): > 100 µM (inactive)
GI50 (SF-295): > 100 µM (inactive)
GI50 (Malme-3M): > 100 µM (inactive)
GI50 (COLO 205): > 100 µM (inactive)
GI50 (HOP-92): 31 µM (inactive)
GI50 (A549): > 100 µM (inactive)
GI50 (SK-OV-3): > 100 µM (inactive)
GI50 (SNB-19): > 100 µM (inactive)
GI50 (UO-31): 28.8 µM (inactive)
GI50 (OVCAR-3): > 100 µM (inactive)
GI50 (EKVX): > 100 µM (inactive)
GI50 (HCT-116): 84.5 µM (inactive)
GI50 (A498): > 100 µM (inactive)
GI50 (NCI-H460): > 100 µM (inactive)
GI50 (ACHN): 97.9 µM (inactive)
GI50 (UACC-257): > 100 µM (inactive)
GI50 (NCI-H23): > 100 µM (inactive)
GI50 (SN12C): > 100 µM (inactive)
GI50 (SF-268): > 100 µM (inactive)
GI50 (HCT-15): 47.1 µM
GI50 (786-0): 69.7 µM (inactive)
GI50 (SNB-75): 58.3 µM (inactive)
GI50 (MOLT-4): 42.4 µM (inactive)
GI50 (KM-20L2): > 100 µM (inactive)
GI50 (M14): > 100 µM (inactive)
GI50 (SK-MEL-28): > 100 µM (inactive)
GI50 (HCC 2998): > 100 µM (inactive)
GI50 (U-251): > 100 µM (inactive)
GI50 (K562): 45.9 µM (inactive)
GI50 (OVCAR-5): > 100 µM (inactive)
GI50 (HT-29): 57.3 µM (inactive)
GI50 (TK-10): > 100 µM (inactive)
GI50 (DLD-1): 73.8 µM (inactive)
GI50 (CCRF-CEM): 45.6 µM (inactive)
GI50 (SK-MEL-5): 71.1 µM (inactive)
GI50 (IGROV-1): > 100 µM (inactive)
GI50 (CAKI-1): 24 µM (inactive)
GI50 (M19-MEL): > 100 µM (inactive)
GI50 (HOP-62): > 100 µM (inactive)
GI50 (SW-620): > 100 µM (inactive)
GI50 (HL-60): 48.5 µM (inactive)
GI50 (SK-MEL-2): > 100 µM (inactive)
GI50 (LOX IMVI): > 100 µM (inactive)
GI50 (SF-539): > 100 µM (inactive)
GI50 (RXF 393): > 100 µM (inactive)
GI50 (OVCAR-8): > 100 µM (inactive)
GI50 (NCI-H226): 50.7 µM (inactive)
GI50 (LXFL 529): 62.8 µM (inactive)
GI50 (SNB-78): > 100 µM (inactive)
GI50 (UACC-62): 72.3 µM (inactive)
GI50 (RPMI-8226): 45.3 µM (inactive)

CC1C(=O)O[C@H]2C1CC[C@@]1(C)[C@H](O)CC[C@@]13C[C@]2(O)OO3 (stereo partly specified)
GI50 (DMS-273): > 100 µM (inactive)
GI50 (SF-295): > 100 µM (inactive)
GI50 (Malme-3M): > 100 µM (inactive)
GI50 (COLO 205): > 100 µM (inactive)
GI50 (HOP-92): > 100 µM (inactive)
GI50 (DMS-114): > 100 µM (inactive)
GI50 (SR): > 100 µM (inactive)
GI50 (A549): > 100 µM (inactive)
GI50 (SK-OV-3): > 100 µM (inactive)
GI50 (SNB-19): > 100 µM (inactive)
GI50 (UO-31): > 100 µM (inactive)
GI50 (OVCAR-3): > 100 µM (inactive)
GI50 (HCT-116): > 100 µM (inactive)
GI50 (A498): > 100 µM (inactive)
GI50 (NCI-H460): > 100 µM (inactive)
GI50 (ACHN): > 100 µM (inactive)
GI50 (UACC-257): > 100 µM (inactive)
GI50 (NCI-H23): > 100 µM (inactive)
GI50 (SN12C): > 100 µM (inactive)
GI50 (SF-268): > 100 µM (inactive)
GI50 (HCT-15): > 100 µM
GI50 (786-0): > 100 µM (inactive)
GI50 (MOLT-4): > 100 µM (inactive)
GI50 (KM-20L2): > 100 µM (inactive)
GI50 (M14): > 100 µM (inactive)
GI50 (SK-MEL-28): > 100 µM (inactive)
GI50 (HCC 2998): > 100 µM (inactive)
GI50 (HOP-18): > 100 µM (inactive)
GI50 (U-251): > 100 µM (inactive)
GI50 (K562): > 100 µM (inactive)
GI50 (OVCAR-5): > 100 µM (inactive)
GI50 (HT-29): > 100 µM (inactive)
GI50 (TK-10): > 100 µM (inactive)
GI50 (DLD-1): > 100 µM (inactive)
GI50 (OVCAR-4): > 100 µM (inactive)
GI50 (CCRF-CEM): > 100 µM (inactive)
GI50 (SK-MEL-5): > 100 µM (inactive)
GI50 (IGROV-1): > 100 µM (inactive)
GI50 (CAKI-1): > 100 µM (inactive)
GI50 (M19-MEL): > 100 µM (inactive)
GI50 (HOP-62): > 100 µM (inactive)
GI50 (SW-620): > 100 µM (inactive)
GI50 (HL-60): > 100 µM (inactive)
GI50 (LOX IMVI): > 100 µM (inactive)
GI50 (OVCAR-8): > 100 µM (inactive)
GI50 (NCI-H226): > 100 µM (inactive)
GI50 (LXFL 529): > 100 µM (inactive)
GI50 (UACC-62): > 100 µM (inactive)
GI50 (RPMI-8226): > 100 µM (inactive)

CC1C[C@@]2(c3ccccc3)C(=O)CCC[C@H]2N1 (stereo partly specified)
GI50 (DMS-273): > 100 µM (inactive)
GI50 (KM12): > 100 µM (inactive)
GI50 (SF-295): > 100 µM (inactive)
GI50 (Malme-3M): 16.9 µM (inactive)
GI50 (HOP-92): 29.6 µM (inactive)
GI50 (DMS-114): > 100 µM (inactive)
GI50 (SR): > 100 µM (inactive)
GI50 (A549): > 100 µM (inactive)
GI50 (SK-OV-3): > 100 µM (inactive)
GI50 (SNB-19): > 100 µM (inactive)
GI50 (UO-31): > 100 µM (inactive)
GI50 (OVCAR-3): > 100 µM (inactive)
GI50 (EKVX): > 100 µM (inactive)
GI50 (HCT-116): > 100 µM (inactive)
GI50 (A498): > 100 µM (inactive)
GI50 (NCI-H460): > 100 µM (inactive)
GI50 (ACHN): > 100 µM (inactive)
GI50 (UACC-257): > 100 µM (inactive)
GI50 (NCI-H23): > 100 µM (inactive)
GI50 (SN12C): > 100 µM (inactive)
GI50 (SF-268): > 100 µM (inactive)
GI50 (786-0): > 100 µM (inactive)
GI50 (SNB-75): > 100 µM (inactive)
GI50 (MOLT-4): > 100 µM (inactive)
GI50 (KM-20L2): > 100 µM (inactive)
GI50 (M14): > 100 µM (inactive)
GI50 (SK-MEL-28): > 100 µM (inactive)
GI50 (U-251): > 100 µM (inactive)
GI50 (K562): > 100 µM (inactive)
GI50 (OVCAR-5): > 100 µM (inactive)
GI50 (HT-29): > 100 µM (inactive)
GI50 (TK-10): > 100 µM (inactive)
GI50 (DLD-1): > 100 µM (inactive)
GI50 (OVCAR-4): > 100 µM (inactive)
GI50 (CCRF-CEM): > 100 µM (inactive)
GI50 (SK-MEL-5): > 100 µM (inactive)
GI50 (IGROV-1): > 100 µM (inactive)
GI50 (CAKI-1): > 100 µM (inactive)
GI50 (M19-MEL): > 100 µM (inactive)
GI50 (HOP-62): > 100 µM (inactive)
GI50 (SW-620): > 100 µM (inactive)
GI50 (HL-60): > 100 µM (inactive)
GI50 (SK-MEL-2): > 100 µM (inactive)
GI50 (SF-539): > 100 µM (inactive)
GI50 (RXF 393): > 100 µM (inactive)
GI50 (NCI-H522): > 100 µM (inactive)
GI50 (OVCAR-8): > 100 µM (inactive)
GI50 (NCI-H226): > 100 µM (inactive)
GI50 (LXFL 529): > 100 µM (inactive)
GI50 (SNB-78): > 100 µM (inactive)
GI50 (UACC-62): > 100 µM (inactive)
